Laboratory results published in US20240408053A1, “ENTERITIS-SUPPRESSING COMPOSITION” (KOBE GAKUIN EDUCATIONAL FOUNDATION, priority 2021, published 2024).

Key:
claudin-1 = assay: Western blotting of claudin-1 in colon tissue; format: in vivo, mice; conditions: group ES: 2.0% v/v ethanol diet + 2.5 mg sesaminol per day oral, 2 weeks, vs group E; lower than group C
Description: Acetaldehyde, which accumulates during ethanol metabolism, is known to disrupt intestinal tight junctions (TJs) via dissociation of colonic epithelium TJ proteins (ZO-1, occludin, and claudin-1) from the cytoskeleton. […] Therefore, whether oral administration of sesaminol would affect ethanol-induced intestinal barrier dysfunction was examined by analyzing the expression levels of colonic epithelial TJ proteins and the plasma LPS level in the mice in the four groups (groups C, S, E, and ES).
WB was performed in the same manner as in Example 4 above. The following primary antibodies were used. • Anti-mouse zonula occludens-1 protein (ZO-1) rabbit polyclonal antibody • Anti-mouse occludin rabbit polyclonal antibody • Anti-mouse claudin-1 rabbit polyclonal antibody

LPS = assay: Plasma LPS level, 4 weeks; format: in vivo, mice; conditions: group ES: 2.0% v/v ethanol diet + 2.5 mg sesaminol per day oral, vs group E, level similar to groups C and S
Description: The plasma LPS concentration was measured with a limulus amebocyte lysate (LAL) assay.
Next, in order to verify the longer-term effect of oral administration of sesaminol on ethanol-induced intestinal tight junction (TJ) dysfunction and leaky gut, histological analysis of colonic epithelial TJ proteins (ZO-1, Occludin, and Claudin-1) and analysis of the plasma LPS level were performed using the mice in each group (groups C, S, E, and ES) described in Example 7. Histological analysis was performed by immunofluorescence staining with anti-ZO-1, anti-Occludin, and anti-Claudin-1 antibodies, followed by observation under a fluorescence microscope. The Plasma LPS level was measured according to the method described in Example 6.

IL-6 = IL-6 expression in colon tissue (qRT-PCR, ELISA); format: in vivo, mice; conditions: group ES: 2.0% v/v ethanol diet + 2.5 mg sesaminol per day oral, 2 weeks, vs group E; higher than group C
Description: (§1) It has been reported that chronic consumption of an excessive amount of ethanol can induce inflammation associated with tumor formation in colon tissue. Therefore, in order to verify whether oral administration of sesaminol has a preventive effect on ethanol-induced colitis, the expression levels of inflammatory cytokines (TNF-α and IL-6) and chemokine (MCP-1) in the large intestinal lamina propria of the mice in the four groups (groups C, S, E, and ES) were examined by qRT-PCR and ELISA. The NF-κB activity in the mice in the four groups was also examined. NF-κB is a transcription factor that is involved in expression of genes regulating inflammation and is activated by exposure of immune cells to pro-inflammatory factors.
Total RNA was extracted from colon tissue samples. […]
(§2) A colon tissue sample (100 mg) was homogenized in 1 mL of an M-PER mammalian protein extraction reagent (Pierce) containing a diluent of a protease inhibitor cocktail (Nacalai Tesque, Inc.), and the resulting homogenate was centrifuged at 20,000× g at 4° C. for 15 minutes. The protein concentration of the supernatant was measured with a protein assay reagent (Bio-Rad Laboratories, Inc.), and equal amounts of proteins were used for analysis of the expression levels of TNF-α, IL-6, and MCP-1 by ELISA.

NF-κB p65 = NF-κB p65 activation level in colon tissue extract by ELISA; format: in vivo, mice; conditions: group ES: 2.0% v/v ethanol diet + 2.5 mg sesaminol per day oral, 2 weeks, vs group E
Description: as §1

CYP2E1 = assay: Western blotting of CYP2E1 in colon tissue; format: in vivo, mice; conditions: group ES: 2.0% v/v ethanol diet + 2.5 mg sesaminol per day oral, 2 weeks, vs group E
Description: Chronic consumption of an excessive amount of ethanol has been reported to increase CYP2E1 and iNOS levels and cause ethanol-induced oxidative stress in the liver and other tissues. The nuclear factor erythroid 2-related factor 2/heme oxygenase-1 (Nrf2/HO-1) system has also been reported to be widely involved in the protection of cells from oxidative damage. Therefore, the expression levels of these proteins (CYP2E1, iNOS, and HO-1) in mouse colon tissue in the four groups (groups C, S, E, and ES) were examined by western blotting (WB).
as §2, with “subjected to SDS-PAGE. Electrophoresed proteins in” for “used for analysis of”, “gel were transferred to a PVDF membrane,” for “expression levels of TNF-α, IL-6,”, “the membrane was immersed in a blocking reagent (room temperature, overnight). The primary antibody (rabbit polyclonal antibody) was then reacted. […] The band intensities were quantified with ImageJ.” for “MCP-1 by ELISA.”

secretory IgA = assay: Amount of secretory IgA in colon tissue of mice; format: in vivo; conditions: group ES: 2.0% v/v ethanol diet + 2.5 mg sesaminol per day oral, 4 weeks, vs group E; level similar to group C
Description: The effect of oral administration of sesaminol on the amount of mucus secretion in mouse colon was examined by measuring the amount of fecal mucin of the mice in each group (groups C, E, S, and ES) and the amount of secretory immunoglobulin A (sIgA) in the colon tissue of the mice.
After liquid nitrogen treatment, the amount of sigA in each colon tissue stored at −80° C. was quantified according to the product protocol of a reagent kit for measuring secretory IgA (QuickDetect (trademark) Secretory IgA (Mouse) ELISA kit, produced by BioVision, Inc.). The resulting value was converted to the secretory IgA concentration (ng/ml) per 100 mg of the tissue and evaluated.

mouse gut microbiota = assay: Structural analysis of mouse gut microbiota (16S rRNA sequencing); format: in vivo, mice; conditions: 4 weeks
Description: Additionally, the gut microbiota structures of the mice in each group (groups C, E, S, and ES) were analyzed.
The mouse gut microbiota 16S rRNA sequencing was outsourced to MyMetagenome Co., Ltd.
Immediately after collection, mouse feces was treated with liquid nitrogen and stored at −80° C. While the fecal samples were frozen, treatment was performed, and the extracted nucleic acids were used as samples for sequence analysis. The measurement was performed using a next-generation sequencer (NGS) (MiniSeq, Illumina, K.K.), and the results of 16S rRNA genes (the V1-V2 region) and sequences of 5,000 reads or more from the extracted nucleic acids were used for analysis. For the analysis of bacterial flora structure, raw sequence data processing and well-known sequence data analysis were performed, and the analysis was clustered at a 96% pairwise identity cutoff for 16S reads. Similarity values were assigned to the phylum and genus categories.

[1] = group S: 2.5 mg sesaminol per day oral, no ethanol, vs group C

Q: Which “expression level of claudin-1” value (claudin-1) does the source give for `Oc1cc2c(cc1C1OCC3C(c4ccc5c(c4)OCO5)OCC13)OCO2` (centres unmarked) [Sesaminol] here?
A: Its value is “significantly higher than those in group E”.

Q: And the “plasma LPS concentration” value (LPS)?
A: The value was “significant and considerable decrease in the plasma LPS concentration compared with group E”.

Q: And the “expression level of IL-6 (mRNA by qRT-PCR, protein by ELISA)” value (IL-6)?
A: The value was “significantly lower than those in group E”.

Q: What about the “NF-κB p65 activation level” value (NF-κB p65) of the same compound?
A: The value was “significantly lower than that in group E”.

Q: What about the CYP2E1 expression level (CYP2E1) of the same compound?
A: The CYP2E1 expression level was “significantly lower than that in group E”.

Q: And the “amount of secretory IgA in colon tissue” value (secretory IgA)?
A: The value was “significantly higher than that in group E”.

Q: What about the “bacterial flora structure at the phylum level (abnormalities observed in group E: Tenericutes, Verrucomicrobia, Proteobacteria, Actinobacteria increased)” value (mouse gut microbiota; group ES: 2.0% v/v ethanol diet + 2.5 mg sesaminol per day oral) of the same compound?
A: The value was “recovered to the same level as group C”.

Q: And the “relative abundance of the family Lachnospiraceae, the family Ruminococcaceae, and the family Tannerellaceae” value (mouse gut microbiota; group ES: 2.0% v/v ethanol diet + 2.5 mg sesaminol per day oral, group E significant decrease)?
A: The value was “recovered to the same level as that in group C”.

Q: And the “relative abundance of the family Enterobacteriaceae and the family Streptococcaceae” value (mouse gut microbiota; group ES: 2.0% v/v ethanol diet + 2.5 mg sesaminol per day oral, group E significant increase)?
A: The value was “recovered to the same level as that in group C”.

Q: And the “obligate anaerobes of the phylum Bacteroidetes and the phylum Firmicutes (short-chain fatty acids-producing bacteria)” value (mouse gut microbiota; [1])?
A: The value was “increase in obligate anaerobes of the phylum Bacteroidetes and the phylum Firmicutes”.

Q: And the “short-chain fatty acid-producing bacteria of the family Lachnospiraceae, the family Ruminococcaceae, and the family Tannerellaceae” value (mouse gut microbiota; [1])?
A: Its value is “increased in group S alone compared with group C”.
